{"source": "patent US20250032490A1", "about": "“THERAPEUTIC REGIMENS FOR TREATMENT OF PAROXYSMAL NOCTURNAL HEMOGLOBINURIA” (Achillion Pharmaceuticals, Inc., priority 2017, published 2025)", "key": {"[1]": {"test_system": "complement system alternative pathway", "assay": "CAP Wieslab assay (CAP-mediated TCC production)", "type": "biochemical, human", "conditions": "AP activity in vitro"}, "[2]": {"test_system": "C3 fragment deposition on artificial PNH cells", "assay": "C3 fragment deposition on artificial PNH cells (flow cytometry)", "type": "cell-based", "conditions": "32% acidified C5-depleted normal human serum; read-out: IC50, inhibition of C3 fragment deposition on artificial PNH cells", "protocol": "C5-depleted normal human serum (C5-Dpl NHS), gelatin veronal buffer (GVB) without Ca^++ and Mg^++ (GVB^0), 100 mM MgCl2+100 mM EGTA (MgEGTA) were obtained from Complement Technology Inc. (Tyler, TX). GVB^0·MgEGTA was prepared by mixing GVB^0 and 100 mM MgEGTA in a 9:1 ratio. FITC-conjugated anti-C3c antibody (cat #ab4212) and Alexa Fluor® 647-conjugated anti human CD59 antibody (cat #:ab187769) were purchased from Abcam (Cambridge, MA). […] Ferrone, and F. Mercuriali, The Action of Two Sulfhydryl Compounds on Normal Human Red Cells. Relationship to Red Cells of Paroxysmal Nocturnal Hemoglobinuria. Blood, 1965. 25: p. 502-10). After AET treatment, artificial PNH erythrocytes were centrifuged, supernatant was aspirated and cells were thoroughly washed with phosphate buffered saline (PBS) 3 times followed by washing with GVB^0 buffer ([…]) for additional 3 times. […] C3 fragment deposition on the surface of the erythrocytes was assessed by flow cytometry with BD Accuri C6 cytometer (BD Biosciences, San Jose, CA). […] IC50 values from each experiment were determined by curve-fitting of experimental data (the % C3 fragment-positive cells at increasing concentrations of inhibitor) to the four-parameter sigmoidal dose-response equation using non-linear regression analysis (Prism Software, GraphPad, La Jolla, CA)."}, "[3]": {"assay": "Phase 2 study in PNH subjects: lactate dehydrogenase levels", "type": "in vivo, human", "conditions": "Compound 1 100 mg TID + IV eculizumab", "protocol": "(§1) The starting dose of compound 1 is based upon group assignment. The Group 1 dose is 100mg three times daily (TID). The Group 2 dose is 150 mg TID. The Group 3 dose is 200 mg TID. The Group 4 dose will receive the optimal dose determined from Groups 1-3.\nAll doses are taken approximately 15-30 minutes after completion of a meal or snack. […]\n(§2) 2 subjects in the first dose level of 100 mg TID have been completed and data collected through 4 weeks. Data collected include lactate dehydrogenase (LDH) levels, hemoglobin levels, reticulocytes, PNH red blood cells (Type III) percentage, C3 Fragment Deposition percentage, and bilirubin levels and their changes from baseline.\nLactate dehydrogenase is a pharmacodynamic marker that is measured from blood drawn on Day 1, Week 1, Week 2, and Week 4 (FIGS. 13A & 13B and Table 15). High levels of LDH in the blood can be an indication of hemolysis."}, "[4]": {"assay": "Phase 2 study in PNH subjects: hemoglobin levels", "type": "in vivo, human", "conditions": "Compound 1 100 mg TID + IV eculizumab", "protocol": "as §1\n(§3) All doses are taken approximately 15-30 minutes after completion of a meal or snack.\n(§4) This will be followed by a long-term extension phase.\nas §2\nFree hemoglobin is a pharmacodynamic marker that is measured from blood drawn on Day 1, Week 1, Week 2, and Week 4 (FIGS. 14A & 14B and Table 16). Low levels of hemoglobin is a sign of hemolytic anemia."}, "[5]": {"test_system": "PNH Type III red blood cells", "assay": "Phase 2 study in PNH subjects: PNH red blood cell (Type III) percentage", "type": "in vivo, human", "conditions": "Compound 1 100 mg TID + IV eculizumab", "protocol": "as §1, §3, §4, §2\nMeasuring the percentage of PNH Type III red blood cells is a pharmacodynamic marker that is measured by flow cytometry, which provides information on cell size, shape, and percentage of a type of cell. This assay determines whether CD55 and CD59 are missing from the surface of red blood cells. These proteins help protect normal cells from hemolysis. PNH Type III cells are extremely sensitive to the complement system and hemolysis. PNH Type III cell percentage is measured from plasma drawn on Day 1, Week 2, and Week 4 (FIGS. 16A & 16B and Table 18)."}, "rabbit erythrocytes": {"test_system": "rabbit erythrocytes", "assay": "CAP-mediated hemolysis assay with rabbit erythrocytes", "type": "cell-based", "conditions": "Oryctolagus cuniculus, Erythrocyte; AP activity in vitro"}, "[6]": {"conditions": "subject 003-001, DAY 1 (baseline)"}, "[7]": {"conditions": "subject 003-002, DAY 1 (baseline)"}}}
{"smiles": "CC(=O)c1nn(CC(=O)N2C[C@H](F)C[C@H]2C(=O)Nc2cccc(Br)n2)c2ccc(-c3cnc(C)nc3)cc12", "note": "[Compound 1, (2S,4R)-1-(2-(3-acetyl-5-(2-methylpyrimidin-5-yl)-1H-indazol-1-yl)acetyl)-N-(6-bromopyridin-2-yl)-4-fluoropyrrolidine-2-carboxamide]", "values": [{"measurement": "IC50", "setting": "[1]", "value": 26, "unit": "nM"}, {"measurement": "IC50", "setting": "[2]", "value": 27, "unit": "nM"}, {"measurement": "LDH Observed", "setting": "[3]; [6]", "value": 357, "unit": "U/L"}, {"measurement": "LDH CFB (change from baseline)", "setting": "[3]; subject 003-001, DAY 1", "value": 0, "unit": "U/L"}, {"measurement": "LDH CFB (change from baseline)", "setting": "[3]; subject 003-001, WEEK 1", "value": "−83", "unit": "U/L"}, {"measurement": "LDH Observed", "setting": "[3]; subject 003-001, WEEK 1", "value": 274, "unit": "U/L"}, {"measurement": "LDH CFB (change from baseline)", "setting": "[3]; subject 003-001, WEEK 2", "value": "−105", "unit": "U/L"}, {"measurement": "LDH Observed", "setting": "[3]; subject 003-001, WEEK 2", "value": 252, "unit": "U/L"}, {"measurement": "LDH CFB (change from baseline)", "setting": "[3]; subject 003-001, WEEK 4", "value": "−86", "unit": "U/L"}, {"measurement": "LDH Observed", "setting": "[3]; subject 003-001, WEEK 4", "value": 271, "unit": "U/L"}, {"measurement": "LDH Observed", "setting": "[3]; [7]", "value": 210, "unit": "U/L"}, {"measurement": "LDH CFB (change from baseline)", "setting": "[3]; subject 003-002, DAY 1", "value": 0, "unit": "U/L"}, {"measurement": "LDH CFB (change from baseline)", "setting": "[3]; subject 003-002, WEEK 1", "value": "−52", "unit": "U/L"}, {"measurement": "LDH Observed", "setting": "[3]; subject 003-002, WEEK 1", "value": 158, "unit": "U/L"}, {"measurement": "LDH CFB (change from baseline)", "setting": "[3]; subject 003-002, WEEK 2", "value": "−40", "unit": "U/L"}, {"measurement": "LDH Observed", "setting": "[3]; subject 003-002, WEEK 2", "value": 170, "unit": "U/L"}, {"measurement": "LDH CFB (change from baseline)", "setting": "[3]; subject 003-002, WEEK 4", "value": "−31", "unit": "U/L"}, {"measurement": "LDH Observed", "setting": "[3]; subject 003-002, WEEK 4", "value": 179, "unit": "U/L"}, {"measurement": "HEMOGLOBIN Observed", "setting": "[4]; [6]", "value": 5.0, "unit": "g/dL"}, {"measurement": "HEMOGLOBIN CFB (change from baseline)", "setting": "[4]; subject 003-001, DAY 1", "value": 0.0, "unit": "g/dL"}, {"measurement": "HEMOGLOBIN CFB (change from baseline)", "setting": "[4]; subject 003-001, WEEK 1", "value": 1.1, "unit": "g/dL"}, {"measurement": "HEMOGLOBIN Observed", "setting": "[4]; subject 003-001, WEEK 1", "value": 6.1, "unit": "g/dL"}, {"measurement": "HEMOGLOBIN CFB (change from baseline)", "setting": "[4]; subject 003-001, WEEK 2", "value": 2.0, "unit": "g/dL"}, {"measurement": "HEMOGLOBIN Observed", "setting": "[4]; subject 003-001, WEEK 2", "value": 7.0, "unit": "g/dL"}, {"measurement": "HEMOGLOBIN CFB (change from baseline)", "setting": "[4]; subject 003-001, WEEK 4", "value": 2.6, "unit": "g/dL"}, {"measurement": "HEMOGLOBIN Observed", "setting": "[4]; subject 003-001, WEEK 4", "value": 7.6, "unit": "g/dL"}, {"measurement": "HEMOGLOBIN Observed", "setting": "[4]; [7]", "value": 9.8, "unit": "g/dL"}, {"measurement": "HEMOGLOBIN CFB (change from baseline)", "setting": "[4]; subject 003-002, DAY 1", "value": 0.0, "unit": "g/dL"}, {"measurement": "HEMOGLOBIN CFB (change from baseline)", "setting": "[4]; subject 003-002, WEEK 1", "value": 1.4, "unit": "g/dL"}, {"measurement": "HEMOGLOBIN Observed", "setting": "[4]; subject 003-002, WEEK 1", "value": 11.2, "unit": "g/dL"}, {"measurement": "HEMOGLOBIN CFB (change from baseline)", "setting": "[4]; subject 003-002, WEEK 2", "value": 1.8, "unit": "g/dL"}, {"measurement": "HEMOGLOBIN Observed", "setting": "[4]; subject 003-002, WEEK 2", "value": 11.6, "unit": "g/dL"}, {"measurement": "HEMOGLOBIN CFB (change from baseline)", "setting": "[4]; subject 003-002, WEEK 4", "value": 2.9, "unit": "g/dL"}, {"measurement": "HEMOGLOBIN Observed", "setting": "[4]; subject 003-002, WEEK 4", "value": 12.7, "unit": "g/dL"}, {"measurement": "PNH RBC (TYPE III) Observed", "setting": "[5]; [6]", "value": 41, "unit": "%"}, {"measurement": "PNH RBC (TYPE III) CFB (change from baseline)", "setting": "[5]; subject 003-001, DAY 1", "value": 0, "unit": "%"}, {"measurement": "PNH RBC (TYPE III) CFB (change from baseline)", "setting": "[5]; subject 003-001, WEEK 2", "value": 21, "unit": "%"}, {"measurement": "PNH RBC (TYPE III) Observed", "setting": "[5]; subject 003-001, WEEK 2", "value": 62, "unit": "%"}, {"measurement": "PNH RBC (TYPE III) CFB (change from baseline)", "setting": "[5]; subject 003-001, WEEK 4", "value": 29, "unit": "%"}, {"measurement": "PNH RBC (TYPE III) Observed", "setting": "[5]; subject 003-001, WEEK 4", "value": 70, "unit": "%"}, {"measurement": "PNH RBC (TYPE III) Observed", "setting": "[5]; [7]", "value": 50, "unit": "%"}, {"measurement": "PNH RBC (TYPE III) CFB (change from baseline)", "setting": "[5]; subject 003-002, DAY 1", "value": 0, "unit": "%"}, {"measurement": "PNH RBC (TYPE III) CFB (change from baseline)", "setting": "[5]; subject 003-002, WEEK 2", "value": 10, "unit": "%"}, {"measurement": "PNH RBC (TYPE III) Observed", "setting": "[5]; subject 003-002, WEEK 2", "value": 60, "unit": "%"}, {"measurement": "PNH RBC (TYPE III) CFB (change from baseline)", "setting": "[5]; subject 003-002, WEEK 4", "value": 18, "unit": "%"}, {"measurement": "PNH RBC (TYPE III) Observed", "setting": "[5]; subject 003-002, WEEK 4", "value": 68, "unit": "%"}, {"measurement": "IC50", "setting": "rabbit erythrocytes", "value": 27, "unit": "nM"}]}
